# Reference: patent publication US20240343704A1, “HALO-SUBSTITUTED AMINO PYRIDINE COMPOUNDS AS INHIBITORS OF THE HAEMATOPOIETIC PROGENITOR KINASE 1 (HPK1)” (priority 2021, published 2024)
# Target: T1, Recombinant (1-346) HPK1 (h) (Homo sapiens, UniProt Q92918)
# T1 construct: Recombinant (1-346) HPK1 (h) is incubated with 8 mM MOPS pH 7.0
# T1 sequence (Q92918 1-346): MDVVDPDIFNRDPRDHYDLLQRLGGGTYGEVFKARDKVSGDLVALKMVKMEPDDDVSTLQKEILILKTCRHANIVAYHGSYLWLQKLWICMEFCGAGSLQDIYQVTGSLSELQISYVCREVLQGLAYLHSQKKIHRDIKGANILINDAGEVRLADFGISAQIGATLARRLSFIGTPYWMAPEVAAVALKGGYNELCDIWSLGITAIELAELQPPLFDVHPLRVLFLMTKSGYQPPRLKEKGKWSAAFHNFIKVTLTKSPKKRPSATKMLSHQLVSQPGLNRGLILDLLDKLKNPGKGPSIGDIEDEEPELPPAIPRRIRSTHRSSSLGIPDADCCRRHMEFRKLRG
# Test: HPK1 Human STE Kinase Enzymatic Radiometric Assay
# Assay type: biochemical
# Conditions: read-out: HPK1 IC50 nM Range*
# Procedure: A stock solution of 10 mM of test compound is prepared in DMSO. The compound plate was prepared by 3-fold and 9-point serial dilutions. […] The reaction is initiated by The addition of the Mg/ATP mix. After incubation for 40 minutes at RT, the reaction is stopped by the addition of phosphoric acid to a concentration of 0.5%.
row,SMILES,IC50 [nM]
1,"Nc1nc(F)c(-c2ccc(N3CCN(CC4CC4)CC3)cc2)cc1-c1cc(F)c2c(c1)OCCNC2=O [I-635, 8-(2-amino-5-(4-(4-(cyclopropylmethyl)piperazin-1-yl)phenyl)-6-fluoropyridin-3-yl)-6-fluoro-3,4-dihydrobenzo[f][1,4]oxazepin-5(2H)-one]",0.1 to 10
2,"Nc1nc(F)c(-c2ccc(N3CCN(CCC(F)F)CC3)cc2)cc1-c1cc2c(cc1F)C(=O)NCC2 [I-477, 6-(2-amino-5-(4-(4-(3,3-difluoropropyl)piperazin-1-yl)phenyl)-6-fluoropyridin-3-yl)-7-fluoro-3,4-dihydroisoquinolin-1(2H)-one]",0.1 to 10
3,"CN1CCC[C@H]1c1cccc(-c2cc(-c3cc4c(cc3F)C(=O)NCC4)c(N)nc2F)c1 [I-444, (S)-6-(2-amino-6-fluoro-5-(3-(1-methylpyrrolidin-2-yl)phenyl)pyridin-3-yl)-7-fluoro-3,4-dihydroisoquinolin-1(2H)-one]",11 to 100
4,"Cc1nc2cc(-c3cc(-c4ccc(N5CCN(C(C)C)CC5)cc4)c(F)nc3N)ccc2c(=O)n1N [I-465, 3-amino-7-(2-amino-6-fluoro-5-(4-(4-isopropylpiperazin-1-yl)phenyl)pyridin-3-yl)-2-methylquinazolin-4(3H)-one]",101 to 1000
5,Nc1nc(F)c(-c2ccc(N3CCOCC3)c(CN3CCC3)n2)cc1-c1cc2c(cc1F)C(=O)NCC2 [I-579],0.1 to 10
6,"CCN(C)Cc1cc(-c2cc(-c3ccc4c(=O)[nH]cc(C)c4c3)c(N)nc2F)ccc1OC [I-634, 6-(2-amino-5-(3-((ethyl(methyl)amino)methyl)-4-methoxyphenyl)-6-fluoropyridin-3-yl)-4-methylisoquinolin-1(2H)-one]",11 to 100
7,"CN(C)Cc1cc(-c2cc(-c3ccc4c(c3)CCNC4=O)c(N)nc2F)ncc1N1CCOCC1 [I-613, 6-(6′-amino-4-((dimethylamino)methyl)-2′-fluoro-5-morpholino-[2,3′-bipyridin]-5′-yl)-3,4-dihydroisoquinolin-1(2H)-one]",11 to 100
8,"CN(C)Cc1cc(-c2cc(-c3cc4c(cc3F)C(=O)NCC4)c(N)nc2F)ccc1N1CCN(CCCC(F)F)CC1 [I-447, 6-(2-amino-5-(4-(4-(4,4-difluorobutyl)piperazin-1-yl)-3-((dimethylamino)methyl)phenyl)-6-fluoropyridin-3-yl)-7-fluoro-3,4-dihydroisoquinolin-1(2H)-one]",0.1 to 10
9,"CCN(C)Cc1c(N2CCOCC2)ccc(-c2cc(-c3ccc4c(c3)CCNC4=O)c(N)nc2F)c1F [I-610, 6-(2-amino-5-(3-((ethyl(methyl)amino)methyl)-2-fluoro-4-morpholinophenyl)-6-fluoropyridin-3-yl)-3,4-dihydroisoquinolin-1(2H)-one]",11 to 100
10,"Cc1c[nH]c(=O)c2ccc(-c3cc(-c4ccc5c(c4)[C@H](N(C)C)CO5)c(F)nc3N)cc12 [I-629, (S)-6-(2-amino-5-(3-(dimethylamino)-2,3-dihydrobenzofuran-5-yl)-6-fluoropyridin-3-yl)-4-methylisoquinolin-1(2H)-one]",101 to 1000
11,"Cc1nc2cc(-c3cc(-c4ccc(N5C[C@@H](C)N(C)[C@@H](C)C5)cc4)c(F)nc3N)cc(F)c2c(=O)[nH]1 [I-501, 7-(2-amino-6-fluoro-5-(4-((3R,5S)-3,4,5-trimethylpiperazin-1-yl)phenyl)pyridin-3-yl)-5-fluoro-2-methylquinazolin-4(3H)-one]",11 to 100
12,"COCCN(C)Cc1cc(-c2cc(-c3cc4c(cc3F)C(=O)NCC4)c(N)nc2F)ccc1N1CCOCC1 [I-554, 6-(2-amino-6-fluoro-5-(3-(((2-methoxyethyl)(methyl)amino)methyl)-4-morpholinophenyl)pyridin-3-yl)-7-fluoro-3,4-dihydroisoquinolin-1(2H)-one]",11 to 100

# Target: Lck (h) (Homo sapiens, UniProt P06239)
# Test: Lck Human  Kinase Enzymatic Radiometric Assay
# Assay type: biochemical
# Conditions: ratio of Lck IC50 to HPK1 IC50
# Procedure: Lck (h) is incubated with 50 mM Tris pH 7.5, 0.1 mM EGTA, 0.1 mM Na3VO4, 250 uM KVEKIGEGTYGVVYK (Cdc2 peptide), 10 mM MgAcetate and [gamma-33P]-ATP (specific activity and concentration as required). The reaction is initiated by the addition of the Mg/ATP mix. After incubation for 40 minutes at RT, the reaction is stopped by the addition of phosphoric acid to a concentration of 0.5%. 10 uL of the reaction is then spotted onto a P30 filtermat and washed four times for 4 minutes in 0.425% phosphoric acid and once in methanol prior to drying and scintillation counting. For more details on the kinase assay procedures see: Gao, Y. et. al.; Biochem J., 451 (2): 313-328, 2013.
# Chain of Lck (h) (P06239 whole entry): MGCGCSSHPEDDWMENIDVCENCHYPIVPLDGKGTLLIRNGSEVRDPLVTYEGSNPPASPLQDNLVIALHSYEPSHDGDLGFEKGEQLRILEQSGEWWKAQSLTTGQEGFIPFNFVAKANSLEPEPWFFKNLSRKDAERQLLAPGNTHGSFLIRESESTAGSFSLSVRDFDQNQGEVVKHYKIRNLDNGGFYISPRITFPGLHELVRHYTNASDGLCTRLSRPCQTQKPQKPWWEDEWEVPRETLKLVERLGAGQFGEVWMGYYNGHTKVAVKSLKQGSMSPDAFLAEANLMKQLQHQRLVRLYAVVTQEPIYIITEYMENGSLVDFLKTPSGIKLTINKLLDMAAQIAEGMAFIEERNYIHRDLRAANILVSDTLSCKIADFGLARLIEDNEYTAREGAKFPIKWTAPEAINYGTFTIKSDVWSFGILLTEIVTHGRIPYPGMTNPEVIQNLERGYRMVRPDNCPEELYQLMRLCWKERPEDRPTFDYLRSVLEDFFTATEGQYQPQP
row,SMILES,LcK IC50/HPK IC50 selectivity
1,Nc1ncc(-c2ccc(N3C[C@@H]4CCO[C@@H]4C3)cc2)cc1-c1ccc2c(c1)CCNC2=O [reference compound],34
2,Nc1nc(F)c(-c2ccc(C3CCNCC3)cc2)cc1-c1cc2c(cc1F)C(=O)NCC2 [drawing 2693],704
3,Nc1nc(F)c(-c2cnn(C3CCOCC3)c2)cc1-c1ccc2c(c1)CCNC2=O [drawing 2675],2000
4,Nc1nc(F)c(-c2ccc(N3CCCC3)cc2)cc1-c1ccc2c(c1)CCNC2=O [drawing 2677],769
5,Nc1nc(F)c(-c2ccc(N3CCCN4CCCC4C3)cc2)cc1-c1ccc2c(c1)CCNC2=O (centres unmarked) [drawing 2691],1073
6,Nc1ncc(-c2ccc(N3CCNCC3)c(C(F)(F)F)c2)cc1-c1ccc2c(c1)CCNC2=O [reference compound],145
7,Nc1nc(F)c(-c2ccc(N3CCN4CCCC4C3)cc2)cc1-c1ccc2c(c1)CCNC2=O (centres unmarked) [drawing 2689],1480
8,Nc1nc(F)c(-c2ccc(N3CCNCC3)c(C(F)(F)F)c2)cc1-c1ccc2c(c1)CCNC2=O [drawing 2685],2580
9,Nc1ncc(-c2ccc(N3CCCN4CCCC4C3)cc2)cc1-c1ccc2c(c1)CCNC2=O (centres unmarked) [reference compound],92
10,Nc1ncc(-c2ccc(C3CCNCC3)cc2)cc1-c1ccc2c(c1)CCNC2=O [reference compound],45
11,Nc1ncc(-c2ccc(C3CCNCC3)cc2)cc1-c1cc2c(cc1F)C(=O)NCC2 [reference compound],27
12,Nc1ncc(-c2cnn(C3CCOCC3)c2)cc1-c1ccc2c(c1)CCNC2=O [reference compound],0.2
13,Nc1ncc(-c2ccc(N3C[C@H]4COC[C@H]4C3)cc2)cc1-c1ccc2c(c1)CCNC2=O [reference compound],51
14,Nc1nc(F)c(-c2ccc(N3CCCCC3)cc2)cc1-c1ccc2c(c1)CCNC2=O [drawing 2679],1250
15,Nc1ncc(-c2ccc(N3CCCCC3)cc2)cc1-c1ccc2c(c1)CCNC2=O [reference compound],79
16,Nc1nc(F)c(-c2ccc3c(c2)OCCCO3)cc1-c1ccc2c(c1)CCNC2=O [drawing 2687],1429
17,Nc1ncc(-c2ccc(N3CCCC3)cc2)cc1-c1ccc2c(c1)CCNC2=O [reference compound],69
18,Nc1ncc(-c2ccc(N3CCN4CCCC4C3)cc2)cc1-c1ccc2c(c1)CCNC2=O (centres unmarked) [reference compound],20
19,Nc1ncc(-c2ccc3c(c2)OCCCO3)cc1-c1ccc2c(c1)CCNC2=O [reference compound],485

# Same assay, conditions: read-out: Lck IC50 nM Range*
row,SMILES,IC50 [nM]
1,"Nc1nc(F)c(-c2ccc(N3CCN(CCCC(F)F)CC3)cc2)cc1-c1cc2c(cc1F)C(=O)NCC2 [I-441, 6-(2-amino-5-(4-(4-(4,4-difluorobutyl)piperazin-1-yl)phenyl)-6-fluoropyridin-3-yl)-7-fluoro-3,4-dihydroisoquinolin-1(2H)-one]",> 1000
